# Measurements from PubChem BioAssay AID208 (DTP/NCI, 2004).
# Values joined by “and” are separate entries in the source; they are usually repeats but may differ in a detail not shown here. Equal entries are not always repeated. Records with an inconclusive call do not appear.
# Test system: HT29 intrarenal xenograft, nude mice, tumor weight change
# Test: NCI In Vivo Anticancer Drug Screen. Data for tumor model HT29;CX-1 Human Adenocarcinoma (MER+) (intrarenal inoculation) in NU/NU BALB/C (nude) mice
# Conditions: endpoint: mean tumor weight change, higher = larger tumour
# Protocol: The antitumor activity of compounds was measured in mice bearing transplantable tumors. Survival or tumor size were measured and the results are expressed as the measurement made in the treated group (T) divided by the measurement made in the vehicle treated control group (C). The tumor model used in this assay is HT29;CX-1 Human Adenocarcinoma (MER+) (intrarenal inoculation) in NU/NU BALB/C (nude) mice
# [1] = dose: 37.5 mg/kg/injection, schedule: Q04DX004 (sc), vehicle: saline
# [2] = dose: 150.0 mg/kg/injection, schedule: Q04DX004 (sc), vehicle: saline with Tween-80
# [3] = dose: 600.0 mg/kg/injection, schedule: Q04DX004 (sc), vehicle: saline with Tween-80
# [4] = dose: 50.0 mg/kg/injection, schedule: Q04DX004 (sc), vehicle: Klucel (hydroxypropylcellulose) (HPC)
# [5] = dose: 100.0 mg/kg/injection, schedule: Q04DX004 (sc), vehicle: Klucel (hydroxypropylcellulose) (HPC)
# [6] = dose: 50.0 mg/kg/injection, schedule: Q01DX010 (sc), vehicle: saline with Tween-80
# [7] = dose: 100.0 mg/kg/injection, schedule: Q01DX010 (sc), vehicle: saline with Tween-80
# [8] = dose: 300.0 mg/kg/injection, schedule: Q04DX004 (sc), vehicle: Klucel (hydroxypropylcellulose) (HPC)
# [9] = dose: 600.0 mg/kg/injection, schedule: Q04DX004 (sc), vehicle: Klucel (hydroxypropylcellulose) (HPC)
# [10] = dose: 1200.0 mg/kg/injection, schedule: Q04DX004 (sc), vehicle: Klucel (hydroxypropylcellulose) (HPC)
# [11] = dose: 10.0 mg/kg/injection, schedule: Q04DX004 (sc), vehicle: saline
# [12] = dose: 20.0 mg/kg/injection, schedule: Q04DX004 (sc), vehicle: saline
# [13] = dose: 100.0 mg/kg/injection, schedule: Q04DX004 (sc), vehicle: saline
# [14] = dose: 200.0 mg/kg/injection, schedule: Q04DX004 (sc), vehicle: saline
compound,measurement,setting,value
O=C(C/C(=N\C(=S)Nc1cc(C(F)(F)F)ccc1Cl)NO)N1CCCC1,T/C,"dose: 600.0 mg/kg/injection, schedule: Q04DX003 (sc), vehicle: saline with Tween-80",114 % of control
same,T/C,"dose: 1200.0 mg/kg/injection, schedule: Q04DX003 (sc), vehicle: saline with Tween-80",88 % of control
O=[N+]([O-])c1nccn1CC(O)CO (stereo unspecified),T/C,"dose: 300.0 mg/kg/injection, schedule: Q04DX004 (sc), vehicle: saline",86 % of control
same,T/C,"dose: 1200.0 mg/kg/injection, schedule: Q04DX004 (sc), vehicle: saline",81 % of control
same,T/C,"dose: 2400.0 mg/kg/injection, schedule: Q04DX004 (sc), vehicle: saline",112 % of control
O=C(O)CCCc1ccc(N(CCCl)CCCl)cc1,T/C,"dose: 0.13 mg/kg/injection, schedule: Q04DX004 (ip), vehicle: Klucel (hydroxypropylcellulose) (HPC)",70 % of control
same,T/C,"dose: 0.2 mg/kg/injection, schedule: Q04DX004 (ip), vehicle: Klucel (hydroxypropylcellulose) (HPC)",77 % of control
same,T/C,"dose: 0.3 mg/kg/injection, schedule: Q04DX004 (ip), vehicle: Klucel (hydroxypropylcellulose) (HPC)",35 % of control
same,T/C,"dose: 40.0 mg/kg/injection, schedule: Q04DX004 (ip), vehicle: Klucel (hydroxypropylcellulose) (HPC)",54 % of control
c1ccc2c(c1)[As]=c1ccccc1=[As]2 (stereo unspecified),T/C,"dose: 9.38 mg/kg/injection, schedule: Q04DX004 (sc), vehicle: saline",113 % of control
same,T/C,"dose: 18.72 mg/kg/injection, schedule: Q04DX004 (sc), vehicle: saline",86 % of control
same,T/C,[1],107 % of control
same,T/C,"dose: 75.0 mg/kg/injection, schedule: Q04DX004 (sc), vehicle: saline",70 % of control
Cn1c(=O)[nH]c2nncnc2c1=O,T/C,"dose: 60.0 mg/kg/injection, schedule: Q04DX004 (sc), vehicle: water",124 % of control
Cc1c(N)nc(C(CC(N)=O)NCC(N)C(N)=O)nc1C(=O)NC(C(=O)NC(C)C(O)C(C)C(=O)NC(C(=O)NCCc1nc(-c2nc(C(=O)NCCCNC(C)c3ccccc3)cs2)cs1)C(C)O)C(OC1OC(CO)C(O)C(O)C1OC1OC(CO)C(O)C(OC(N)=O)C1O)c1cnc[nH]1 (stereo unspecified),T/C,"dose: 4.0 mg/kg/injection, schedule: Q01DX010 (sc), vehicle: saline",11 % of control
same,T/C,"dose: 16.0 mg/kg/injection, schedule: Q01DX010 (sc), vehicle: saline",25 % of control
C=COC(=O)C(Cc1ccccc1)NC(=O)OCc1ccccc1 (stereo unspecified),T/C,[2],100 % of control
same,T/C,"dose: 300.0 mg/kg/injection, schedule: Q04DX004 (sc), vehicle: saline with Tween-80",80 % of control
same,T/C,[3],123 % of control
same,T/C,"dose: 1200.0 mg/kg/injection, schedule: Q04DX004 (sc), vehicle: saline with Tween-80",60 % of control
O=S(=O)(O)O.[NH-]C1CCCCC1[NH-].[Pt+2] (stereo unspecified),T/C,"dose: 0.63 mg/kg/injection, schedule: Q01DX010 (sc), vehicle: dextrose",124 % of control
same,T/C,"dose: 1.25 mg/kg/injection, schedule: Q01DX010 (sc), vehicle: dextrose",83 % of control
same,T/C,"dose: 2.5 mg/kg/injection, schedule: Q01DX010 (sc), vehicle: dextrose",73 % of control
CC(C)CCC(=O)c1ccoc1,T/C,"dose: 0.75 mg/kg/injection, schedule: Q01DX010 (ip), vehicle: saline with Tween-80",85 % of control
same,T/C,"dose: 1.5 mg/kg/injection, schedule: Q01DX010 (ip), vehicle: saline with Tween-80",87 % of control
same,T/C,"dose: 3.0 mg/kg/injection, schedule: Q01DX010 (ip), vehicle: saline with Tween-80",75 % of control and 91 % of control
same,T/C,"dose: 6.0 mg/kg/injection, schedule: Q01DX010 (ip), vehicle: saline with Tween-80",74 % of control and 94 % of control
COC1C(C)OC(OC2CC(C)(O)Cc3cc4c(c(O)c32)C(=O)c2c(O)cc3c(c2C4=O)OC2OC3(C)C(O)C(N(C)C)C2O)C(OC)C1(C)OC (stereo unspecified),T/C,"dose: 20.0 mg/kg/injection, schedule: Q04DX004 (sc), vehicle: Klucel (hydroxypropylcellulose) (HPC)",74 % of control
same,T/C,"dose: 40.0 mg/kg/injection, schedule: Q04DX004 (sc), vehicle: Klucel (hydroxypropylcellulose) (HPC)",49 % of control
CC(=O)OCC(=O)[C@@]12OC(C)(C)O[C@@H]1C[C@H]1[C@@H]3CC(C=O)=C4C=C(OCCCl)CC[C@]4(C)[C@@]3(F)[C@@H](O)C[C@@]12C,T/C,[4],101 % of control
same,T/C,[5],23 % of control
CN(C)c1nc(N(C)C)nc(N(C)C)n1,T/C,"dose: 12.5 mg/kg/injection, schedule: Q01DX010 (sc), vehicle: saline with Tween-80",99 % of control
same,T/C,[6],79 % of control
same,T/C,[7],72 % of control
C1OC1CO[C@@H]1CO[C@H]2[C@@H]1OC[C@H]2OCC1CO1 (stereo partly specified),T/C,[6],121 % of control
same,T/C,[7],64 % of control
same,T/C,"dose: 200.0 mg/kg/injection, schedule: Q01DX010 (sc), vehicle: saline with Tween-80",103 % of control
COc1cc(C(=O)c2cocc2C(=O)c2ccc3c(c2)OCO3)cc(OC)c1OC,T/C,[8],103 % of control
same,T/C,[9],57 % of control
same,T/C,[10],89 % of control
same,T/C,"dose: 2400.0 mg/kg/injection, schedule: Q04DX004 (sc), vehicle: Klucel (hydroxypropylcellulose) (HPC)",66 % of control
CC(C)CC(NC(=O)CF)C(=O)O (stereo unspecified),T/C,[11],87 % of control
same,T/C,[12],157 % of control
CC[C@](O)(C(=O)O)c1cc2n(c(=O)c1CO)Cc1cc3ccccc3nc1-2,T/C,"dose: 31.25 mg/kg/injection, schedule: Q04DX004 (sc), vehicle: saline",39 % of control
CC1(C)COCN1COCCOCN1COCC1(C)C,T/C,"dose: 50.0 mg/kg/injection, schedule: Q04DX004 (sc), vehicle: saline",66 % of control
same,T/C,[13],122 % of control
same,T/C,[14],58 % of control
same,T/C,"dose: 400.0 mg/kg/injection, schedule: Q04DX004 (sc), vehicle: saline",122 % of control
ClCCCN1CCCCC1CCl (stereo unspecified),T/C,"dose: 6.25 mg/kg/injection, schedule: Q04DX004 (sc), vehicle: saline",57 % of control
same,T/C,"dose: 12.5 mg/kg/injection, schedule: Q04DX004 (sc), vehicle: saline",95 % of control
same,T/C,"dose: 25.0 mg/kg/injection, schedule: Q04DX004 (sc), vehicle: saline",71 % of control
COc1cccc2c1C(=O)c1c(O)c3c(c(O)c1C2=O)C[C@@](O)(C(=O)CO)C[C@@H]3OC1CC(N2CCOCC2C#N)C(O)C(C)O1 (stereo partly specified),T/C,"dose: 15.0 micrograms/kg/injection, schedule: Q04DX004 (ip), vehicle: saline",114 % of control
same,T/C,"dose: 30.0 micrograms/kg/injection, schedule: Q04DX004 (ip), vehicle: saline",110 % of control
same,T/C,"dose: 60.0 micrograms/kg/injection, schedule: Q04DX004 (ip), vehicle: saline",78 % of control
Cc1c(-c2ccc(-c3ccccc3F)cc2)nc2ccc(F)cc2c1C(=O)O,T/C,"dose: 12.5 mg/kg/injection, schedule: Q01DX010 (ip), vehicle: water",59 % of control
same,T/C,"dose: 53.3 mg/kg/injection, schedule: Q01DX009 (ip), vehicle: water",30 % of control
NC(=O)CCC(N)C(=O)O (stereo unspecified),T/C,"dose: 75.0 mg/kg/injection, schedule: Q04DX004 (ip), vehicle: suspension in saline",101 % of control
same,T/C,"dose: 150.0 mg/kg/injection, schedule: Q04DX004 (ip), vehicle: suspension in saline",70 % of control
same,T/C,"dose: 600.0 mg/kg/injection, schedule: Q04DX004 (ip), vehicle: suspension in saline",95 % of control
same,T/C,"dose: 1200.0 mg/kg/injection, schedule: Q04DX004 (ip), vehicle: suspension in saline",107 % of control
O=Cc1ccc(C=O)c(Cl)c1,T/C,"dose: 150.0 mg/kg/injection, schedule: Q04DX004 (sc), vehicle: Klucel (hydroxypropylcellulose) (HPC)",92 % of control
same,T/C,[8],81 % of control
same,T/C,[9],109 % of control
same,T/C,[10],114 % of control
NCCCNCCSP(=O)(O)O,T/C,[14],102 % of control
C/C(=N\NC(=S)N1CCN(c2ccccn2)CC1)c1ccccn1,T/C,"dose: 50.0 mg/kg/injection, schedule: Q04DX004 (sc), vehicle: water",158 % of control
CC[As](=O)(O)CC,T/C,[13],61 % of control
O=NN(CCCl)C(=O)NC1OC(CO)C(O)C(O)C1O (stereo unspecified),T/C,"dose: 5.0 mg/kg/injection, schedule: Q04DX004 (sc), vehicle: saline",75 % of control
same,T/C,[11],76 % of control
same,T/C,[12],57 % of control
CC1(C)OCC2OC=CC(=O)C2O1 (stereo unspecified),T/C,[2],111 % of control and 89 % of control
same,T/C,[3],82 % of control and 92 % of control
CC1=C(O)C(=O)[C@@H]2O[C@@H]2C1=O,T/C,[1],60 % of control
CN(C)N=Nc1cccc(C(N)=O)c1,T/C,"dose: 25.0 mg/kg/injection, schedule: Q04DX004 (sc), vehicle: Klucel (hydroxypropylcellulose) (HPC)",91 % of control
same,T/C,[4],85 % of control
same,T/C,[5],123 % of control
